Biological target: T1, S-ribosylhomocysteine lyase (Vibrio harveyi, UniProt B0LUE4)
T1 sequence (B0LUE4 whole entry): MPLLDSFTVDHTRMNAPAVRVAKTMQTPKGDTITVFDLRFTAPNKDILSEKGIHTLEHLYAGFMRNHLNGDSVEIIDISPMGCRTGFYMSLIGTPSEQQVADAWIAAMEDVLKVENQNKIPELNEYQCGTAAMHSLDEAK
Experiment: bacterial growth suppression, V. harveyi cultures – absorbance, dose retest, counter-screen for AI-2 quorum sensing modulator project, confirmation (AID 2725)

SMILES: CN(C)S(=O)(=O)c1ccc(NC(=S)NC(=O)Cc2ccccc2)cc1 [N-[[4-(dimethylsulfamoyl)phenyl]carbamothioyl]-2-phenyl-ethanamide]
- EC50: > 160 µM

SMILES: C=Cn1c(C(=O)O)ccc1-c1ccc(CC)cc1
- EC50: > 160 µM

SMILES: COc1cc(NC(=O)CN2C(=O)NC(c3ccccc3)(c3ccccc3)C2=O)cc(OC)c1 [MLS001176525]
- EC50: 13.7 µM

SMILES: CCCc1ccc(S(=O)(=O)N(C)S(=O)(=O)c2ccc(F)cc2)cc1 [N-(4-fluorophenyl)sulfonyl-N-methyl-4-propylbenzenesulfonamide]
- EC50: 4.55 µM

SMILES: Cn1cnc(S(=O)(=O)Nc2ccc(OC(F)(F)F)cc2)c1 [SMR000314513]
- EC50: > 160 µM

SMILES: Cc1cccc(NS(=O)(=O)c2ccc(Oc3ccccc3)cc2)n1 [SMR000071466]
- EC50: > 160 µM

SMILES: CCc1ccc(S(=O)(=O)Nc2ccc(Br)cn2)cc1 [MLS001211346]
- EC50: > 160 µM
